What all share (experiment): inhibition of PEG-3 promoter-driven reporter – cell-based, HeLa, luciferase, CREF/GAPDH counter-screen panel, dose response (AID 624167)
In test [1] the target is PEG-3 (UniProt Q6IN02). To be noted: HeLa PEG-Prom luciferase reporter, overnight, CREF/GAPDH counter-screens, mean of runs.
For a further test, the system named is Rat fibroblasts (CREF). To be noted: CREF/GAPDH counter-screens.
The subject of test [2] is PEG-3. To be noted: HeLa PEG-Prom luciferase reporter, overnight, CREF/GAPDH counter-screens.
Where [3] appears, read: run 1, dose range 1, individual replicate IC50 per panel.
Setting [4] is: run 2, dose range 1, individual replicate IC50 per panel.

The structures appear in SMILES notation. Activity calls are given as the source filed them.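 The calls were made as follows: active = mean IC50 for reducing PEG3 promoter reporter signal at or below a set limit, with IC50 above the limit in both counter screens; inactive = the rest, including counter screen hits.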

Chain of PEG-3 (UniProt Q6IN02) (Q6IN02 whole entry, looked up): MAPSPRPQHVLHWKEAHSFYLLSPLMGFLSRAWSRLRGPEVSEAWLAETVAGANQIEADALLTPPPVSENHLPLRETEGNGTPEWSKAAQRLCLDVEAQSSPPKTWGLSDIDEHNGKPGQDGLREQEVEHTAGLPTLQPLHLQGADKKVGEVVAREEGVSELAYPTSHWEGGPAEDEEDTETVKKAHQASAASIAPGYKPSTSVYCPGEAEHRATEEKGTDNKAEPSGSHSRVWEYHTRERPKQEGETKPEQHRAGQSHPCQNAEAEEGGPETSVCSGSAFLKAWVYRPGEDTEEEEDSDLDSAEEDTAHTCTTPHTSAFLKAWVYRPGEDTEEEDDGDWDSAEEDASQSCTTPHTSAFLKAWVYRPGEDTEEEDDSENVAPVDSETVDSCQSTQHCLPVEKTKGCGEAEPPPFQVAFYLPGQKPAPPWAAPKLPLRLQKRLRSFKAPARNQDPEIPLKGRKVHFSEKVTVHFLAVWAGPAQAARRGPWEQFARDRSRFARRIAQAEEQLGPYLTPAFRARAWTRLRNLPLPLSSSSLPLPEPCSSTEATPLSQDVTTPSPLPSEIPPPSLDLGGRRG

Consider `Cc1ccc(C(=O)Nc2ncc([N+](=O)[O-])s2)cc1`, for which the IC50 was 2.73 µM at PEG-3 [1]; 8.85 µM in the test on Rat fibroblasts (CREF) (mean of runs); 5.94 µM in the test on Rat fibroblasts (CREF) (setting [3]); 11.8 µM in the test with Rat fibroblasts (CREF) (setting [4]); 2.01 µM in the test with PEG-3 [2] (setting [3]); 3.45 µM in the test on PEG-3 [2] (setting [4]).
Consider `C=CCn1c(C)cc(C2=NNC(=NCC)SC2)c1C`, for which the IC50 at PEG-3 [1] was 2.37 µM; in the test with Rat fibroblasts (CREF) (mean of runs), 1.72 µM; in the test with Rat fibroblasts (CREF) (setting [3]), 1.49 µM; in the test with Rat fibroblasts (CREF) (setting [4]) it was 1.95 µM; in the test on PEG-3 [2] (setting [3]), 3.02 µM; in the test with PEG-3 [2] (setting [4]) it was 1.72 µM.
For `CCCS(=O)(=O)c1cnc(C2COc3ccccc3O2)nc1N` (configuration not stated), the IC50 is 3.78 µM at PEG-3 [1]; 10.8 µM in the test with Rat fibroblasts (CREF) (mean of runs); 9.07 µM in the test with Rat fibroblasts (CREF) (setting [3]); 12.5 µM with Rat fibroblasts (CREF) (setting [4]); 2.52 µM in the test with PEG-3 [2] (setting [3]); 5.04 µM with PEG-3 [2] (setting [4]).
Regarding `Cc1ccccc1-c1nc(-c2ccccn2)no1`, the half-maximal inhibitory concentration (IC50) at PEG-3 [1] was 3.9 µM; in the test with Rat fibroblasts (CREF) (mean of runs) it was 1.33 µM; in the test with Rat fibroblasts (CREF) (setting [3]), 1.08 µM; in the test on Rat fibroblasts (CREF) (setting [4]) it was 1.57 µM; with PEG-3 [2] (setting [3]) it was 2.98 µM; in the test on PEG-3 [2] (setting [4]) it was 4.81 µM.
In the case of `COC(=O)Cc1[nH]n(-c2nc3ccccc3s2)c(=O)c1C(C)=Nc1ccc(C)cc1`, the IC50 is 0.865 µM on PEG-3 [1]; 14.8 µM with Rat fibroblasts (CREF) (mean of runs); 25.2 µM in the test with Rat fibroblasts (CREF) (setting [3]); 4.52 µM with Rat fibroblasts (CREF) (setting [4]); 0.98 µM with PEG-3 [2] (setting [3]); 0.751 µM in the test on PEG-3 [2] (setting [4]).
Turning to `CN(c1ccc2nc3ccccc3c(=O)n2n1)C1CCCCC1`, the IC50 on PEG-3 [1] was 3.97 µM; in the test with Rat fibroblasts (CREF) (mean of runs) it was 0.772 µM; in the test with Rat fibroblasts (CREF) (setting [3]) it was 0.789 µM; with Rat fibroblasts (CREF) (setting [4]), 0.755 µM; in the test on PEG-3 [2] (setting [3]), 3 µM; with PEG-3 [2] (setting [4]) it was 4.94 µM.
Take `CN=c1scc(-c2ccccc2F)n1/N=C/c1ccc[nH]1`: the IC50 result on PEG-3 [1] was “inactive”. The concentration for half-maximal inhibition (IC50) in the test with Rat fibroblasts (CREF) (mean of runs) is 4.52 µM; with Rat fibroblasts (CREF) (setting [3]), 4.41 µM; with Rat fibroblasts (CREF) (setting [4]) it was 4.63 µM; with PEG-3 [2] (setting [3]), 4.9 µM; with PEG-3 [2] (setting [4]) it was over 100 µM.
On to `c1ccc(-c2nc(-c3ccccn3)no2)cc1`, for which the IC50 result at PEG-3 [1] was “inactive”. For the same compound, the IC50 was 2.98 µM with Rat fibroblasts (CREF) (mean of runs); 3.18 µM in the test on Rat fibroblasts (CREF) (setting [3]); 2.79 µM with Rat fibroblasts (CREF) (setting [4]); 6.25 µM in the test on PEG-3 [2] (setting [3]); over 100 µM in the test with PEG-3 [2] (setting [4]).
On to `Cc1cccc(C)c1NC(=O)c1nc(S(=O)(=O)Cc2ccccc2)ncc1Cl`, for which the half-maximal inhibitory concentration (IC50) on PEG-3 [1] is 8.69 µM; in the test with Rat fibroblasts (CREF) (mean of runs), 14.6 µM; with Rat fibroblasts (CREF) (setting [3]) it was 13 µM; with Rat fibroblasts (CREF) (setting [4]), 16.1 µM; in the test on PEG-3 [2] (setting [3]), 10.1 µM; in the test with PEG-3 [2] (setting [4]) it was 7.29 µM.
Regarding `O=C(Nc1nc2cc3c(cc2s1)OCCO3)c1ccco1`, the IC50 at PEG-3 [1] was 1.98 µM; in the test with Rat fibroblasts (CREF) (mean of runs), 1.48 µM; in the test with Rat fibroblasts (CREF) (setting [3]), 0.766 µM; with Rat fibroblasts (CREF) (setting [4]) it was 2.2 µM; with PEG-3 [2] (setting [3]) it was 1.75 µM; in the test with PEG-3 [2] (setting [4]), 2.22 µM.
Take `CN1CCN(c2ccc(-c3ccc4ccccc4n3)cc2)CC1`: the IC50 entry on PEG-3 [1] was “inactive”. Besides, the concentration for half-maximal inhibition (IC50) in the test on Rat fibroblasts (CREF) (mean of runs) was 2.36 µM; in the test with Rat fibroblasts (CREF) (setting [3]), 2.93 µM; with Rat fibroblasts (CREF) (setting [4]), 1.79 µM; with PEG-3 [2] (setting [3]) it was 7.84 µM; in the test with PEG-3 [2] (setting [4]) it was over 100 µM.
In the case of `CN[C@H]1C[C@H]2c3[nH]c4ccc(-c5ccc(OC)cc5)cc4c3CCN2C(=O)[C@H]1[C@H](C)O`, the concentration for half-maximal inhibition (IC50) was 10.5 µM on PEG-3 [1]; 16.1 µM in the test on Rat fibroblasts (CREF) (mean of runs); 16.9 µM with Rat fibroblasts (CREF) (setting [3]); 15.3 µM in the test on Rat fibroblasts (CREF) (setting [4]); 12.5 µM in the test on PEG-3 [2] (setting [3]); 8.39 µM with PEG-3 [2] (setting [4]).
For the compound `COC(CNC(=O)c1ccc2c3c(onc13)-c1ccccc1C2=O)OC`, the IC50 on PEG-3 [1] is 7.48 µM; in the test with Rat fibroblasts (CREF) (mean of runs), 18.4 µM; in the test with Rat fibroblasts (CREF) (setting [3]) it was 17.6 µM; with Rat fibroblasts (CREF) (setting [4]), 19.2 µM; in the test on PEG-3 [2] (setting [3]), 9.32 µM; in the test on PEG-3 [2] (setting [4]) it was 5.65 µM.
`O=C1CCCCC1Sc1nnc(-c2ccc3c(c2)OCO3)o1` (configuration not stated): the 50% inhibitory concentration (IC50) at PEG-3 [1] was 1.7 µM; with Rat fibroblasts (CREF) (mean of runs) it was 7.83 µM; in the test on Rat fibroblasts (CREF) (setting [3]), 8.19 µM; with Rat fibroblasts (CREF) (setting [4]), 7.46 µM; in the test with PEG-3 [2] (setting [3]) it was 1.69 µM; in the test on PEG-3 [2] (setting [4]) it was 1.71 µM.
Consider `O=C(NC1=NCCS1)C1COc2ccccc2O1` (configuration not stated), for which the IC50 on PEG-3 [1] was 1.88 µM; in the test with Rat fibroblasts (CREF) (mean of runs), 15.1 µM; with Rat fibroblasts (CREF) (setting [3]) it was 14.5 µM; with Rat fibroblasts (CREF) (setting [4]), 15.7 µM; with PEG-3 [2] (setting [3]), 1.36 µM; in the test on PEG-3 [2] (setting [4]), 2.39 µM.
In the case of `CCOc1ccc(OCc2cccc(C(=O)O)c2)cc1`, the half-inhibitory concentration (IC50) was 0.359 µM on PEG-3 [1]; 3.74 µM in the test with Rat fibroblasts (CREF) (mean of runs); 3.88 µM in the test on Rat fibroblasts (CREF) (setting [3]); 3.6 µM in the test with Rat fibroblasts (CREF) (setting [4]); 0.232 µM with PEG-3 [2] (setting [3]); 0.487 µM in the test with PEG-3 [2] (setting [4]).
In the case of `C(=NNc1ccc2ccccc2n1)c1ccccn1`, the IC50 on PEG-3 [1] is 1.66 µM; with Rat fibroblasts (CREF) (mean of runs), 1.44 µM; in the test on Rat fibroblasts (CREF) (setting [3]), 1.33 µM; in the test with Rat fibroblasts (CREF) (setting [4]), 1.55 µM; with PEG-3 [2] (setting [3]), 1.21 µM; in the test with PEG-3 [2] (setting [4]) it was 2.11 µM.

(Values after PubChem BioAssay AID624167 (Sanford-Burnham Center for Chemical Genomics, 2012).)
